These results are taken from US4518597A, “Substituted benzoxazin-2-ones and pharmaceutical compositions containing them” (Dr. Karl Thomae GmbH, priority 1982, dated 1985).

One data set concerns mice. Description: Acute toxicity after oral administration of a single dose. The class given is in vivo. The conditions noted are these: observation period 14 days; for Approximate Acute Toxicity: groups of ten, single oral dose; for animals died: single oral dose 1000 mg. Here is the method: The acute toxicity of the test compounds was determined, as a guide, in groups of ten mice, after oral administration of a single dose (observation period: 14 days): […]

The next data set deals with thrombocyte aggregation. Description: Antithrombotic activity: collagen-induced thrombocyte aggregation in platelet-rich plasma (Born and Cross). The class given is cell-based. The conditions noted are these: Homo sapiens, 50% change in optical density, ten minutes at 37° C. Here is the method:
The thrombocyte aggregation is determined in platelet-rich plasma from healthy test subjects using the method of Born and Cross [J. Physiol. 170, 397 (1964)]. To inhibit coagulation, the blood is mixed with 3.14 percent of sodium citrate in a volume ratio of 1:10.
The pattern of the decrease in optical density of the platelet suspension after administration of the aggregation-initiating substance is measured photometrically and recorded. The speed of aggregation is deduced from the angle of inclination of the density curve. The point of the curve where there is the most light transmittance is used to calculate the optical density.
The quantity of collagen used is as small as possible, but sufficient to produce an irreversible reaction curve. The standard commercial collagen made by Hormonchemie of Munich is used. Before the collagen is administered, the plasma is incubated with the substance for ten minutes at 37° C.
From the measurements obtained, and EC50 is obtained graphically, relating to a 50% change in optical density by way of an inhibition of aggregation.

For data set [1], the system named is phosphodiesterase (PDE) from human blood platelets. As to the kind of experiment: PDE inhibition (phosphodiesterase from human blood platelets, 3H-cAMP hydrolysis). The conditions noted are these: human platelet PDE, 1 μmol/liter 3H-cAMP, pH 7.4, 15 minutes at 37° C. Format: biochemical. The protocol:
cAMP is hydrolyzed to AMP by phosphodiesterase (PDE) from various sources, including blood platelets.
The phosphodiesterase used was prepared by centrifugal extraction at 10,000 g from human blood platelets which were frozen in water and then thawed.
A quantity of 0.3 ml of a mixture containing 0.1 mol/liter of […] (pH 7.4), 3 mmols/liter of magnesium chloride, 1 mmol/liter of AMP, 1 μmol/liter of ^3 H-cAMP (specific activity about 10 MBq/μmol), PDE, and the inhibitor under investigation (water in the case of the control) was incubated for 15 minutes at 37° C. […] From a comparison of the results for inhibitor and control cases, the concentration of the respective inhibitor necessary for a 50% inhibiting effect (IC50) was calculated.

The next data set concerns primary hemostasis. Description: Determination of the prolongation of bleeding time in conscious mice. Particulars: Mus musculus, 1 h, 10 mg/kg oral, one hour, as compared to a control group, read-out: Prolongation of Bleeding Time after One Hour (%). Format: in vivo. The protocol: Since, in the event of injury, the first rapid cessation of bleeding is effected by the adhesion and aggregation of the thrombocytes at the vessel wall, the functioning of the thrombocytes can easily be determined by measuring the bleeding time with a standardized injury. The normal bleeding time in humans is between 1 and 3 minutes, assuming that there are sufficient intact, effective thrombocytes. If the number of thrombocytes is normal and the bleeding time is prolonged, this signifies an abnormality in the thrombocytes. This is found in some inborn errors of thrombocyte function. If, on the other hand, it is desired to prevent spontaneous aggregation of the thrombocytes and occlusion in the arterial system by drugs, successful therapy affecting the thrombocytes should prolong the bleeding time. Therefore, with use of an antithrombotic substance, a prolongation of the bleeding time is expected. Also, there should be a normal coagulation time since the plasma coagulation system is not affected.
To measure the bleeding time, 10 mg/kg of the test compounds were administered orally to conscious mice. After one hour, 0.5 mm of the tip of the tail of each mouse was cut off, and droplets of blood were gently removed with filter paper every 30 seconds. The number of drops of blood thus obtained gives a bleeding time (5 animals per experiment).
The results in the following table represent the prolongation of the bleeding time in percent as compared to a control group.

As usually defined, the EC50 is the concentration needed to bring the measured effect to its halfway point. One may read the IC50 as the midpoint of a concentration-inhibition curve. A high value points to lower potency. In the case of `CC1(C)OC(=O)Nc2ccc(OCCCC[S+]([O-])c3ccc(C4CCCCC4)cc3)cc21` (stereo not drawn) [E, 6-[4-(4-cyclohexyl-phenylsulfinyl)-butoxy]-4,4-dimethyl-4H-3,1-benzoxazin-2-one], in the data set on mice, the “Approximate Acute Toxicity” value is reported as 1000 mg and the animals died is given as 0 out of 10 animals died. The same compound came in with an EC50 with thrombocyte aggregation of 320 nM. In data set [1], this compound had an IC50 of 78 nM. In the data set with primary hemostasis, the change in vivo at 10 mg/kg came out at 46%.

As for `COc1ccc(S(=O)(CCCCOc2ccc3c(c2)C(C)(C)OC(=O)N3)=NC(C)=O)cc1OC` (stereo not drawn) [R, 6-[4-(3,4-dimethoxy-N-acetyl-phenylsulfoximino)-butoxy]-4,4-dimethyl-4H-3,1-benzoxazin-2-one], in the data set with mice, the “Approximate Acute Toxicity” value is 1000 mg and the animals died is listed as 0 out of 10 animals died. In the data set with thrombocyte aggregation, this compound returned an EC50 of 2300 nM. In data set [1], this compound had an IC50 of 710 nM. Moreover, the change in vivo at 10 mg/kg in the data set on primary hemostasis was more than 241%.

`CC1(C)OC(=O)Nc2ccc(OCCCCS(=N)(=O)c3ccc(F)cc3)cc21` (stereo not drawn) [H, 6-[4-(4-fluoro-phenylsulfoximino)-butoxy]-4,4-dimethyl-4H-3,1-benzoxazin-2-one] displayed an EC50 in the data set on thrombocyte aggregation of 320 nM. The compound also displayed an IC50 in data set [1] of 180 nM. In the data set on primary hemostasis, the change in vivo at 10 mg/kg is more than 211%.

`O=C1Nc2ccc(OCCCC[S+]([O-])c3ccccc3)cc2CO1` (stereo not drawn) [K, 6-(4-phenylsulfinyl-butoxy)-4H-3,1-benzoxazin-2-one] yielded an EC50 in the data set with thrombocyte aggregation of 1900 nM. For the same compound, half-maximal inhibition in data set [1] (IC50) required 1500 nM. Further, the change in vivo at 10 mg/kg with primary hemostasis came to 121%.

Turning to `CC1(C)OC(=O)Nc2ccc(OCCCCS(=N)(=O)c3ccc(Cl)c(Cl)c3)cc21` (stereo not drawn) [F, 6-[4-(3,4-dichloro-phenylsulfoximino)-butoxy]-4,4-dimethyl-4H-3,1-benzoxazin-2-one], the midpoint of the response in the data set on thrombocyte aggregation, the EC50, lay at 210 nM. This compound also had an IC50 in data set [1] of 42 nM. In addition, the change in vivo at 10 mg/kg in the data set with primary hemostasis was more than 275%.

Turning to `Cc1cc(S(=N)(=O)CCCCOc2ccc3c(c2)C(C)(C)OC(=O)N3)ccc1Br` (stereo not drawn) [M, 6-[4-(4-bromo-3-methyl-phenylsulfoximino)-butoxy]-4,4-dimethyl-4H-3,1-benzoxazin-2-one], the EC50 with thrombocyte aggregation was determined as 250 nM. In data set [1], this compound returned an IC50 of 66 nM. Further, the change in vivo at 10 mg/kg in the data set with primary hemostasis came to 100%.

On to `CC1(C)OC(=O)Nc2cc(Br)c(OCCCC[S+]([O-])c3ccc(Cl)c(Cl)c3)cc21` (stereo not drawn) [V, 7-bromo-6-[4-(3,4-dichloro-phenylsulfinyl)-butoxy]-4,4-dimethyl-4H-3,1-benzoxazin-2-one], for which, in the data set with mice, the “Approximate Acute Toxicity” value came out at 1000 mg and the animals died is 0 out of 10 animals died. In the data set on thrombocyte aggregation, this compound gave an EC50 of 44 nM. In data set [1], this compound came in with an IC50 of 3.8 nM. Besides, the change in vivo at 10 mg/kg with primary hemostasis was 100%.

For the compound `CC1(C)OC(=O)Nc2ccc(OCCCC[S+]([O-])c3ccc(Cl)cc3)cc21` (stereo not drawn) [Compound A, 6-[4-(4-chloro-phenylsulfinyl)-butoxyl]-4,4-dimethyl-4H-3,1-benzoxazin-2-one], in the data set on mice, the “Approximate Acute Toxicity” value was found to be 1000 mg and the animals died is recorded as 0 out of 10 animals died. The compound also gave an EC50 in the data set on thrombocyte aggregation of 340 nM. For the same compound, in data set [1], the IC50 is 240 nM. Moreover, in the data set with primary hemostasis, the change in vivo at 10 mg/kg was more than 248%.

For `CC(=O)N=S(=O)(CCCCOc1ccc2c(c1)C(C)(C)OC(=O)N2)c1cc(C(C)(C)C)c(O)c(C(C)(C)C)c1` (stereo not drawn) [S, 6-[4-(3,5-di-tert.butyl-4-hydroxy-N-acetyl-phenylsulfoximino)-butoxy]-4,4-dimethyl-4H-3,1-benzoxazin-2-one], in the data set on mice, the “Approximate Acute Toxicity” value is reported as 1000 mg and the animals died is recorded as 0 out of 10 animals died. The same compound showed a 50% effective concentration (EC50) in the data set on thrombocyte aggregation of 2200 nM. For the same compound, in data set [1], the IC50 is 77 nM. The change in vivo at 10 mg/kg in the data set on primary hemostasis is more than 226%.

In turn, `CC1(C)OC(=O)Nc2ccc(OCCCCS(=N)(=O)c3ccc(Br)cc3)cc21` (stereo not drawn) [Compound I, 6-[4-(4-bromo-phenylsulfoximino)-butoxy]-4,4-dimethyl-4H-3,1-benzoxazin-2-one] registered an EC50 in the data set on thrombocyte aggregation of 330 nM. This compound also had an IC50 in data set [1] of 110 nM. In the data set on primary hemostasis, the change in vivo at 10 mg/kg is more than 220%.

Turning to `CC1(C)OC(=O)Nc2ccc(OCCCCS(=N)(=O)c3ccc(-c4ccccc4)cc3)cc21` (stereo not drawn) [Q, 6-[4-(4-biphenylyl-sulfoximino)-butoxy]-4,4-dimethyl-4H-3,1-benzoxazin-2-one], the EC50 in the data set with thrombocyte aggregation worked out at 250 nM. For the same compound, in data set [1], half-maximal inhibition (IC50) required 6.8 nM. The change in vivo at 10 mg/kg with primary hemostasis was determined as 128%.

For the compound `COc1ccc(S(=N)(=O)CCCCOc2ccc3c(c2)C(C)(C)OC(=O)N3)cc1OC` (stereo not drawn) [O, 6-[4-(3,4-dimethoxy-phenylsulfoximino)-butoxy]-4,4-dimethyl-4H-3,1-benzoxazin-2-one], the EC50 in the data set on thrombocyte aggregation was determined as 270 nM. Also, half-maximal inhibition in data set [1] (IC50) required 200 nM. Also, the change in vivo at 10 mg/kg in the data set with primary hemostasis is more than 227%.

In the data set with thrombocyte aggregation, `COc1cccc(S(=N)(=O)CCCCOc2ccc3c(c2)C(C)(C)OC(=O)N3)c1` (stereo not drawn) [G] registered an EC50 of 270 nM. For the same compound, half-maximal inhibition in data set [1] (IC50) was put at 77 nM. Also, in the data set on primary hemostasis, the change in vivo at 10 mg/kg is more than 245%.

Turning to `Cc1ccc([S+]([O-])CCCCOc2cc3c(cc2Cl)NC(=O)OC3(C)C)cc1` (stereo not drawn) [U, 7-chloro-4,4-dimethyl-6-[4-(4-methyl-phenylsulfinyl)-butoxy]-4H-3,1-benzoxazin-2-one], in the data set on mice, the “Approximate Acute Toxicity” value was 1000 mg and the animals died is on record as 0 out of 10 animals died. In addition, the EC50 in the data set on thrombocyte aggregation worked out at 28 nM. The same compound showed an IC50 in data set [1] of 3.4 nM. In addition, the change in vivo at 10 mg/kg with primary hemostasis was more than 230%.

Regarding `CC1(C)OC(=O)Nc2ccc(OCCCC[S+]([O-])c3ccc(Br)cc3)cc21` (stereo not drawn) [L, 6-[4-(4-bromo-phenylsulfinyl)-butoxy]-4,4-dimethyl-4H-3,1-benzoxazin-2-one], in the data set on thrombocyte aggregation, the response was half-maximal at 420 nM (EC50). In data set [1], this compound displayed an IC50 of 240 nM. In the data set on primary hemostasis, the change in vivo at 10 mg/kg was more than 266%.

As for `Cc1ccc(S(=N)(=O)CCCCOc2ccc3c(c2)C(C)(C)OC(=O)N3)cc1` (stereo not drawn) [N, 6-[4-(4-methyl-phenylsulfoximino)-butoxy]-4,4-dimethyl-4H-3,1-benzoxazin-2-one], the EC50 in the data set on thrombocyte aggregation was determined as 220 nM. The IC50 in data set [1] is 65 nM. Besides, the change in vivo at 10 mg/kg in the data set on primary hemostasis worked out at 63%.

Turning to `Cc1ccc(S(=N)(=O)CCCCOc2cc3c(cc2Br)NC(=O)OC3(C)C)cc1` (stereo not drawn) [T, 7-bromo-4,4-dimethyl-6-[4-(4-methyl-phenylsulfoximino)-butoxy]-4H-3,1-benzoxazin-2-one], in the data set with mice, the “Approximate Acute Toxicity” value turned out to be 1000 mg and the animals died was 0 out of 10 animals died. The EC50 in the data set on thrombocyte aggregation was determined as 69 nM. This compound displayed an IC50 in data set [1] of 1 nM. Further, the change in vivo at 10 mg/kg in the data set with primary hemostasis stood at 60%.

As to `COc1ccc(S(=N)(=O)CCCCOc2ccc3c(c2)C(C)(C)OC(=O)N3)cc1` (stereo not drawn) [C, 6-[4-(4-methoxy-phenylsulfoximino)-butoxy]-4,4-dimethyl-4H-3,1-benzoxazin-2-one], in the data set with mice, the “Approximate Acute Toxicity” value turned out to be 1000 mg and the animals died is recorded as 0 out of 10 animals died. In the data set on thrombocyte aggregation, this compound returned an EC50 of 270 nM. The midpoint of inhibition in data set [1], the IC50, lay at 130 nM. In addition, in the data set with primary hemostasis, the change in vivo at 10 mg/kg was more than 241%.

In the case of `CC1(C)OC(=O)Nc2ccc(OCCCC[S+]([O-])c3cc(Br)c(N)c(Br)c3)cc21` (stereo not drawn) [P, 6-[4-(4-amino-3,5-dibromo-phenylsulfinyl)-butoxy]-4,4-dimethyl-4H-3,1-benzoxazin-2-one], the EC50 in the data set on thrombocyte aggregation was 550 nM. In data set [1], this compound returned an IC50 of 56 nM. The change in vivo at 10 mg/kg in the data set with primary hemostasis was found to be 73%.

With `CC1(C)OC(=O)Nc2ccc(OCCCCS(=N)(=O)c3ccc(O)cc3)cc21` (stereo not drawn) [B, 6-[4-(4-hydroxy-phenylsulfoximino)-butoxy]-4,4-dimethyl-4H-3,1-benzoxazin-2-one], in the data set on mice, the “Approximate Acute Toxicity” value was found to be 1000 mg and the animals died was 0 out of 10 animals died. In the data set on thrombocyte aggregation, the response was half-maximal at 280 nM (EC50). In data set [1], this compound registered an IC50 of 230 nM. The change in vivo at 10 mg/kg with primary hemostasis was more than 263%.
